The text below walks through data of patent US10173991B2, “Sulfone amide linked benzothiazole inhibitors of endothelial lipase” (BRISTOL-MYERS SQUIBB COMPANY, priority 2014, dated 2019).

Each structure is given as a SMILES string.

Sequence of Endothelial lipase (EL) (Q9Y5X9 21-500): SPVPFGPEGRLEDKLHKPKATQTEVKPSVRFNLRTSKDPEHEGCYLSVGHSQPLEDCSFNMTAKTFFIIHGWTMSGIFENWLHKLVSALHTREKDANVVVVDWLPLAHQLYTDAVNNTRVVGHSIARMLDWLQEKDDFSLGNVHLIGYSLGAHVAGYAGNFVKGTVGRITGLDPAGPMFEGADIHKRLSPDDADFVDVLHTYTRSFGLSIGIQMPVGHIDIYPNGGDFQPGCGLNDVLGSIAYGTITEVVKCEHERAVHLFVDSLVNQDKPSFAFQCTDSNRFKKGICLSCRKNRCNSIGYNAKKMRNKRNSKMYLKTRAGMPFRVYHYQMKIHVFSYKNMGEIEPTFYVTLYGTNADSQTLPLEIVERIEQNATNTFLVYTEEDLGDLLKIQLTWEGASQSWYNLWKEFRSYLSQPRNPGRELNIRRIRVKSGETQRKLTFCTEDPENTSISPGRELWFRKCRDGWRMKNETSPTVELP

The first experiment concerns the target Endothelial lipase (EL) (Homo sapiens (Human), UniProt Q9Y5X9). In words: Endothelial lipase (EL) enzymatic assay with fluorescent substrate A10070 in DMPG vesicles. In kind it is biochemical.
Conditions: not given
The procedure, abridged: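 Vesicles prepared: A10070 dried with DMPG, resuspended in HEPES pH 8.0/NaCl/EDTA, sonicated on ice. Enzyme incubated with compound 30 min at 37° C. Reaction started with 1:10 diluted vesicles. Fluorescence (490/530 nm) followed 60 min; slope from 300–900 secs gives rate.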
Regarding `CN(C)S(=O)(=O)C(C(=O)NCC(=O)NC1CC1)c1nc2c(F)cc(-c3ccc4cnn(C)c4c3)cc2s1` (centres unmarked) [Example 494, N-[(cyclopropyl-carbamoyl)methyl]-2-(dimethyl-sulfamoyl)-2-[4-fluoro-6-(1-methyl-1H-indazol-6-yl)-1,3-benzothiazol-2-yl] acetamide], the concentration for half-maximal inhibition (IC50) (usually the concentration at which inhibition is half-maximal) turned out to be 44 nM.

Compound `CN(C)S(=O)(=O)C(C(=O)NCC(=O)NC1CC1)c1nc2c(F)cc(-c3ccc(NC(=O)OCc4ccccc4)cc3)cc2s1` (centres unmarked) [Example 495, benzyl N-{4-[2-({[(cyclopropyl-carbamoyl)methyl]carbamoyl} (dimethyl-sulfamoyl)methyl)-4-fluoro-1,3-benzothiazol-6-yl]phenyl}carbamate] came in with an IC50 of 2 nM. This IC50 lies about 22-fold lower than the previous one.

`COC(=O)Nc1ccc(-c2cc(F)c3nc(C(C(=O)NCC(=O)NC4CC4)S(=O)(=O)N(C)C)sc3c2)cc1` (centres unmarked) [Example 496, methyl N-{4-[2-({[(cyclopropyl-carbamoyl)methyl]carbamoyl} (dimethyl-sulfamoyl)methyl)-4-fluoro-1,3-benzothiazol-6-yl]phenyl} carbamate] yielded a half-maximal inhibitory concentration (IC50) of 2 nM.

As to `CN(C)S(=O)(=O)C(C(=O)NCC(=O)NC1CC1)c1nc2c(F)cc(-c3ccc(-n4ccccc4=O)cc3)cc2s1` (centres unmarked) [Example 497, N-[(cyclopropyl-carbamoyl)methyl]-2-(dimethyl-sulfamoyl)-2-{4-fluoro-6-[4-(2-oxo-1,2-dihydropyridin-1-yl)phenyl]-1,3-benzothiazol-2-yl}acetamide], the IC50 worked out at 3 nM. This IC50 lies about 1.5-fold higher than the previous one.

Compound `CN(C)S(=O)(=O)C(C(=O)NCC(=O)NC1CC1)c1nc2c(F)cc(-c3ccc(-c4ccccc4)nc3)cc2s1` (centres unmarked) [Example 498, N-[(cyclopropyl-carbamoyl)methyl]-2-(dimethyl-sulfamoyl)-2-[4-fluoro-6-(6-phenylpyridin-3-yl)-1,3-benzothiazol-2-yl]acetamide] returned a concentration for half-maximal inhibition (IC50) of 3 nM. That is a single-digit nanomolar value.

Turning to `CN(C)S(=O)(=O)C(C(=O)NCC(=O)NC1CC1)c1nc2c(F)cc(-c3ccc(N4CCCCC4=O)cc3)cc2s1` (centres unmarked) [Example 499, N-[(cyclopropyl-carbamoyl)methyl]-2-(dimethyl-sulfamoyl)-2-{4-fluoro-6-[4-(2-oxopiperidin-1-yl)phenyl]-1,3-benzothiazol-2-yl} acetamide], the IC50 came out at 4 nM.

The compound `CN(C)S(=O)(=O)C(C(=O)NCC(=O)NC1CC1)c1nc2c(F)cc(-c3cnc(-c4ccccc4)nc3)cc2s1` (centres unmarked) [Example 500, N-[(cyclopropyl-carbamoyl)methyl]-2-(dimethyl-sulfamoyl)-2-[4-fluoro-6-(2-phenylpyrimidin-5-yl)-1,3-benzothiazol-2-yl]acetamide] had an IC50 of 8 nM.

`CN(C)S(=O)(=O)C(C(=O)NCC(=O)NC1CC1)c1nc2c(F)cc(-c3ccccc3)cc2s1` (centres unmarked) [Example 501, N-[(cyclopropyl-carbamoyl)methyl]-2-(dimethyl-sulfamoyl)-2-(4-fluoro-6-phenyl-1,3-benzothiazol-2-yl)acetamide] gave a 50% inhibitory concentration (IC50) of 8 nM.

Regarding `CN(C)S(=O)(=O)C(C(=O)NCC(=O)NC1CC1)c1nc2c(F)cc(-c3cccc(NC(=O)OCc4ccccc4)c3)cc2s1` (centres unmarked) [Example 502, benzyl N-{3-[2-({[(cyclopropyl-carbamoyl)methyl]carbamoyl} (dimethyl-sulfamoyl)methyl)-4-fluoro-1,3-benzothiazol-6-yl]phenyl} carbamate], it took 2 nM to reach half-maximal inhibition (IC50).

`COC(=O)Nc1cccc(-c2cc(F)c3nc(C(C(=O)NCC(=O)NC4CC4)S(=O)(=O)N(C)C)sc3c2)c1` (centres unmarked) [Example 503, methyl N-{3-[2-({[(cyclopropyl-carbamoyl)methyl]carbamoyl} (dimethyl-sulfamoyl)methyl)-4-fluoro-1,3-benzothiazol-6-yl]phenyl} carbamate] registered an IC50 of 21 nM.

Consider `CN(C)S(=O)(=O)C(C(=O)NCC(=O)NC1CC1)c1nc2c(F)cc(-c3ccc(-c4nnn[nH]4)cc3)cc2s1` (centres unmarked) [Example 504, N-[(cyclopropyl-carbamoyl)methyl]-2-(dimethyl-sulfamoyl)-2-{4-fluoro-6-[4-(1H-1,2,3,4-tetrazol-5-yl)phenyl]-1,3-benzothiazol-2-yl}acetamide], for which half-maximal inhibition (IC50) was put at 10 nM. Against the preceding compound, the IC50 is about 2.1-fold lower.

`CN(C)S(=O)(=O)C(C(=O)NCC(=O)NC1CC1)c1nc2c(F)cc(-c3cccc(-n4cccn4)c3)cc2s1` (centres unmarked) [Example 505, N-[(cyclopropyl-carbamoyl)methyl]-2-(dimethyl-sulfamoyl)-2-{4-fluoro-6-[3-(1H-pyrazol-1-yl)phenyl]-1,3-benzothiazol-2-yl}acetamide] gave a half-inhibitory concentration (IC50) of 130 nM.

In turn, `CN(C)S(=O)(=O)C(C(=O)NCC(=O)NC1CC1)c1nc2cc(F)c(-c3cccc(-n4cccn4)c3)cc2s1` (centres unmarked) [Example 506, N-[(cyclopropyl-carbamoyl)methyl]-2-(dimethyl-sulfamoyl)-2-{5-fluoro-6-[3-(1H-pyrazol-1-yl)phenyl]-1,3-benzothiazol-2-yl} acetamide] showed an IC50 of 52 nM.

Turning to `CN(C)S(=O)(=O)C(C(=O)NCC(=O)NC1CC1)c1nc2cc(F)c(-c3ccc(-c4ccccc4)nc3)cc2s1` (centres unmarked) [Example 507, N-[(cyclopropyl-carbamoyl)methyl]-2-(dimethyl-sulfamoyl)-2-[5-fluoro-6-(6-phenylpyridin-3-yl)-1,3-benzothiazol-2-yl]acetamide], the IC50 came to 16 nM. Compared with the last compound, the IC50 is about 3.2-fold lower.

Consider `CN(C)S(=O)(=O)C(C(=O)NCC(=O)NC1CC1)c1nc2cc(F)c(-c3ccc(-c4ccccn4)cc3)cc2s1` (centres unmarked) [Example 508, N-[(cyclopropyl-carbamoyl)methyl]-2-(dimethyl-sulfamoyl)-2-{5-fluoro-6-[4-(pyridin-2-yl)phenyl]-1,3-benzothiazol-2-yl}acetamide], for which inhibition was half-maximal at 15 nM (IC50).

Consider `O=C(CNC(=O)C(c1nc2cc(F)c(-c3ccc(NC(=O)NCc4ccccc4)cc3)cc2s1)S(=O)(=O)CCC(F)(F)F)NC1CC1` (centres unmarked) [Example 511, 2-(6-{4-[(benzyl-carbamoyl)amino]phenyl}-5-fluoro-1,3-benzothiazol-2-yl)-N-[(cyclopropyl-carbamoyl)methyl]-2-(3,3,3-trifluoropropane-sulfonyl)acetamide], for which inhibition was half-maximal at 1 nM (IC50).

In turn, `O=C(CNC(=O)C(c1nc2ccc(-c3ccc(F)nc3)cc2s1)S(=O)(=O)Cc1ccc(C(F)(F)F)cc1)NC1CC1` (centres unmarked) [Example 512, N-[(cyclopropyl-carbamoyl)methyl]-2-[6-(6-fluoropyridin-3-yl)-1,3-benzothiazol-2-yl]-2-{[4-(trifluoromethyl)phenyl]methanesulfonyl} acetamide] had a 50% inhibitory concentration (IC50) of 16 nM. This IC50 lies about 16-fold higher than the previous one.

The compound `O=C(CNC(=O)C(c1nc2ccc(-c3ccc(F)nc3)cc2s1)S(=O)(=O)Cc1ccc(OC(F)(F)F)cc1)NC1CC1` (centres unmarked) [Example 513, N-[(cyclopropyl-carbamoyl)methyl]-2-[6-(6-fluoropyridin-3-yl)-1,3-benzothiazol-2-yl]-2-{[4-(trifluoromethoxy)phenyl]methanesulfonyl} acetamide] had an IC50 of 20 nM.

`COCCS(=O)(=O)C(C(=O)NCC(=O)NC1CC1)c1nc2c(F)cc(-c3ccc(F)nc3)cc2s1` (centres unmarked) [Example 514, N-[(cyclopropyl-carbamoyl)methyl]-2-[4-fluoro-6-(6-fluoropyridin-3-yl)-1,3-benzothiazol-2-yl]-2-(2-methoxyethane-sulfonyl)acetamide] gave an IC50 of 43 nM.

The compound `O=C(CNC(=O)C(c1nc2ccc(-c3ccc(F)nc3)cc2s1)S(=O)(=O)Cc1ccc(F)cc1)NC1CC1` (centres unmarked) [Example 515, N-[(cyclopropyl-carbamoyl)methyl]-2-[(4-fluorophenyl)methanesulfonyl]-2-[6-(6-fluoropyridin-3-yl)-1,3-benzothiazol-2-yl]acetamide] came in with an IC50 of 48 nM.

As for `CC(C)CS(=O)(=O)C(C(=O)NCC(=O)NC1CC1)c1nc2ccc(-c3ccc(F)nc3)cc2s1` (centres unmarked) [Example 516, N-[(cyclopropyl-carbamoyl)methyl]-2-[6-(6-fluoropyridin-3-yl)-1,3-benzothiazol-2-yl]-2-(2-methylpropane-sulfonyl)acetamide], half-maximal inhibition (IC50) was put at 57 nM.

Consider `O=C(CNC(=O)C(c1nc2ccc(-c3cncnc3)cc2s1)S(=O)(=O)Cc1ccc(F)cc1)NC1CC1` (centres unmarked) [Example 517, N-[(cyclopropyl-carbamoyl)methyl]-2-[(4-fluorophenyl)methanesulfonyl]-2-[6-(pyrimidin-5-yl)-1,3-benzothiazol-2-yl]acetamide], for which the IC50 is 117 nM.

As to `COCCS(=O)(=O)C(C(=O)NCC(=O)NC1CC1)c1nc2cc(F)c(-c3ccc(NC(=O)OCc4ccccn4)cc3)cc2s1` (centres unmarked) [Example 519, pyridin-2-ylmethyl N-{4-[2-({[(cyclopropyl-carbamoyl)methyl]carbamoyl}(2-methoxyethane-sulfonyl)methyl)-5-fluoro-1,3-benzothiazol-6-yl]phenyl}carbamate], half-maximal inhibition (IC50) was put at 2 nM.

With `O=C(CNC(=O)C(c1nc2cc(F)c(-c3ccc(NC(=O)OCc4ccccn4)cc3)cc2s1)S(=O)(=O)CCC(F)(F)F)NC1CC1` (centres unmarked) [Example 520, pyridin-2-ylmethyl N-{4-[2-({[(cyclopropyl-carbamoyl)methyl]carbamoyl}(3,3,3-trifluoropropane-sulfonyl)methyl)-5-fluoro-1,3-benzothiazol-6-yl]phenyl}carbamate], 2 nM corresponded to half-maximal inhibition (IC50).

The same experiment, now with this note: EL from conditioned media of HT-1080 cells; 30 min preincubation at 37° C.
`O=C(CNC(=O)C(c1nc2ccc(-c3ccc(F)nc3)cc2s1)S(=O)(=O)CCO)NC1CC1` (centres unmarked) [Example 509, N-[(Cyclopropylcarbamoyl)methyl]-2-[6-(6-fluoropyridin-3-yl)-1,3-benzothiazol-2-yl]-2-(2-hydroxyethanesulfonyl)acetamide] had an IC50 of 280 nM.

Compound `CS(=O)(=O)C(C(=O)NCC(=O)NC1CC1)c1nc2cc(F)c(-c3ccc(NC(=O)OCc4ccccn4)cc3)cc2s1` (centres unmarked) [Example 510, Pyridin-2-ylmethyl (4-(2-(2-((2-(cyclopropylamino)-2-oxoethyl)amino)-1-(methylsulfonyl)-2-oxoethyl)-5-fluorobenzo[d]thiazol-6-yl)phenyl)carbamate] showed a half-inhibitory concentration (IC50) of 1.3 nM.
